Positions of bridges follow the written chain, without caps; N, C: chain ends. Non-standard residues stand in square brackets, D forms with d. Residues, ends and D or L forms follow the SMILES beside them. ξ: configuration not given here. Phe(4-Br) = N[C@@H](Cc1ccc(Br)cc1)C(=O)O; Phe(4-Me) = Cc1ccc(C[C@H](N)C(=O)O)cc1; 4Pal = N[C@@H](Cc1ccncc1)C(=O)O; NMeNle = CCCC[C@H](NC)C(=O)O; NMeA = CN[C@@H](C)C(=O)O; Nle = CCCC[C@H](N)C(=O)O; ξP = O=C(O)C1CCCN1; Sar = CNCC(=O)O
biological target: T1, Human PD-L1/PD-1 (Homo sapiens, UniProt Q9NZQ7); experiment: HTRF PD-1-Ig/PD-L1-His binding assay (human PD-L1); settings: Table 6; read-out: HTRF Human PD-L1/PD-1 Binding Assay IC50
T1 construct: made in house; host or cells: HEK293T
From the text: The ability of the macrocyclic peptides of the present disclosure to bind to PD-L1 was investigated using a PD-1/PD-L1 Homogenous Time-Resolved Fluorescence (HTRF) binding assay.
Homogenous Time-Resolved Fluorescence (HTRF) Assays of Binding of Soluble PD-1 to Soluble PD-L1. Soluble PD-1 and soluble PD-L1 refers to proteins with carboxyl-end truncations that remove the transmembrane-spanning regions and are fused to heterologous sequences, specifically the Fc portion of the human immunoglobuling G sequence (Ig) or the hexahistidine epitope tag (His). All binding studies were performed in an HTRF assay buffer consisting of dPBS supplemented with 0.1% (w/v) bovine serum albumin and 0.05% (v/v) Tween-20. […] PD-L1 fusion proteins from either human, cynomologous macaques, or mouse were used. HTRF detection was achieved using europium crypate-labeled anti-Ig monoclonal antibody (1 nM final) and allophycocyanin (APC) labeled anti-His monoclonal antibody (20 nM final). Antibodies were diluted in HTRF detection buffer and 5 μl was dispensed on top of binding reaction.

T1 sequence (Q9NZQ7 with tags, fused parts or gaps): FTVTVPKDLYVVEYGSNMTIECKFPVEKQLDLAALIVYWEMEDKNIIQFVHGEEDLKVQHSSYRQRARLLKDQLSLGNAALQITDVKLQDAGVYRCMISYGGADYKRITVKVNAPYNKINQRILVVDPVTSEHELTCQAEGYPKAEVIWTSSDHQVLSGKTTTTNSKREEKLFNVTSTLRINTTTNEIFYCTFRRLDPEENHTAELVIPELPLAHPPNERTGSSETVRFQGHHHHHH

IC50 [nM] | Structure (SMILES)
13 | CCCC[C@H]1C(=O)N(C)[C@@H](CCCC)C(=O)N[C@@H](CC(C)C)C(=O)N[C@H](C(=O)NCC(N)=O)CSCC(=O)N[C@@H](Cc2ccccc2)C(=O)N(C)[C@@H](C)C(=O)N[C@@H](CC(N)=O)C(=O)N2CCC[C@H]2C(=O)N[C@@H](Cc2cnc[nH]2)C(=O)N[C@@H](CCCNC(=N)N)C(=O)N[C@@H](CO)C(=O)N[C@@H](Cc2c[nH]c3ccccc23)C(=O)N[C@@H](CCCNC(=N)N)C(=O)N[C@@H](Cc2c[nH]c3ccccc23)C(=O)N1C [Compound No. 3] ({CH2CO}-F[NMeA]NPHRSWRW[NMeNle][NMeNle]LCG-NH2; thioether N-14)

same assay, conditions: Table 8, Compound No. 1 variant macrocyclic peptides; read-out: HTRF Human PD-L1/PD-1 Binding Assay IC50

IC50 [nM] | Structure (SMILES)
31 | CCCC[C@H]1C(=O)N(C)[C@@H](CCCC)C(=O)N[C@@H](CCCNC(=N)N)C(=O)N[C@H](C(=O)NCC(N)=O)CSCC(=O)N[C@@H](Cc2ccccc2)C(=O)N(C)[C@@H](C)C(=O)N[C@@H](C)C(=O)N2CCCC2C(=O)N[C@@H](Cc2cnc[nH]2)C(=O)N[C@@H](CC(C)C)C(=O)N(C)CC(=O)N[C@@H](Cc2c[nH]c3ccccc23)C(=O)N[C@@H](CO)C(=O)N[C@@H](Cc2c[nH]c3ccccc23)C(=O)N1C (stereo partly drawn) [Compound No. 8] ({CH2CO}-F[NMeA]A[ξP]HL[Sar]WSW[NMeNle][NMeNle]RCG-NH2; thioether N-14)
31 | CCCC[C@H]1C(=O)N(C)[C@@H](CCCC)C(=O)N[C@@H](CCCNC(=N)N)C(=O)N[C@H](C(=O)NCC(N)=O)CSCC(=O)N[C@@H](Cc2ccccc2)C(=O)N(C)[C@@H](C)C(=O)N[C@@H](CC(N)=O)C(=O)N2CCCC2C(=O)N[C@@H](Cc2cnc[nH]2)C(=O)N[C@@H](C)C(=O)N(C)CC(=O)N[C@@H](Cc2c[nH]c3ccccc23)C(=O)N[C@@H](CO)C(=O)N[C@@H](Cc2c[nH]c3ccccc23)C(=O)N1C (stereo partly drawn) [Compound No. 11] ({CH2CO}-F[NMeA]N[ξP]HA[Sar]WSW[NMeNle][NMeNle]RCG-NH2; thioether N-14)
> 30000 | CCCC[C@H]1C(=O)N(C)[C@@H](CCCC)C(=O)N[C@@H](CCCNC(=N)N)C(=O)N[C@H](C(=O)NCC(N)=O)CSCC(=O)N[C@@H](Cc2ccccc2)C(=O)N(C)[C@@H](C)C(=O)N[C@@H](CC(N)=O)C(=O)N2CCCC2C(=O)N[C@@H](Cc2cnc[nH]2)C(=O)N[C@@H](CC(C)C)C(=O)N(C)CC(=O)N[C@@H](C)C(=O)N[C@@H](CO)C(=O)N[C@@H](Cc2c[nH]c3ccccc23)C(=O)N1C (stereo partly drawn) [Compound No. 15] ({CH2CO}-F[NMeA]N[ξP]HL[Sar]ASW[NMeNle][NMeNle]RCG-NH2; thioether N-14)
36 | CCCC[C@@H]1NC(=O)[C@H](Cc2c[nH]c3ccccc23)NC(=O)[C@H](CO)NC(=O)[C@H](Cc2c[nH]c3ccccc23)NC(=O)CN(C)C(=O)[C@H](CC(C)C)NC(=O)[C@H](Cc2cnc[nH]2)NC(=O)C2CCCN2C(=O)[C@H](CC(N)=O)NC(=O)[C@H](C)N(C)C(=O)[C@H](Cc2ccccc2)NC(=O)CSC[C@@H](C(=O)NCC(N)=O)NC(=O)[C@H](CCCNC(=N)N)NC(=O)[C@H](CCCC)N(C)C1=O (stereo partly drawn) [Compound No. 18] ({CH2CO}-F[NMeA]N[ξP]HL[Sar]WSW[Nle][NMeNle]RCG-NH2; thioether N-14)
8460 | CCCC[C@@H]1NC(=O)[C@H](CCCC)N(C)C(=O)[C@H](Cc2c[nH]c3ccccc23)NC(=O)[C@H](CO)NC(=O)[C@H](Cc2c[nH]c3ccccc23)NC(=O)CN(C)C(=O)[C@H](CC(C)C)NC(=O)[C@H](Cc2cnc[nH]2)NC(=O)C2CCCN2C(=O)[C@H](CC(N)=O)NC(=O)[C@H](C)N(C)C(=O)[C@H](Cc2ccccc2)NC(=O)CSC[C@@H](C(=O)NCC(N)=O)NC(=O)[C@H](CCCNC(=N)N)NC1=O (stereo partly drawn) [Compound No. 20] ({CH2CO}-F[NMeA]N[ξP]HL[Sar]WSW[NMeNle][Nle]RCG-NH2; thioether N-14)
21 | CCCC[C@H]1C(=O)N(C)[C@@H](C)C(=O)N[C@@H](CCCNC(=N)N)C(=O)N[C@H](C(=O)NCC(N)=O)CSCC(=O)N[C@@H](Cc2ccccc2)C(=O)N(C)[C@@H](C)C(=O)N[C@@H](CC(N)=O)C(=O)N2CCCC2C(=O)N[C@@H](Cc2cnc[nH]2)C(=O)N[C@@H](CC(C)C)C(=O)N(C)CC(=O)N[C@@H](Cc2c[nH]c3ccccc23)C(=O)N[C@@H](CO)C(=O)N[C@@H](Cc2c[nH]c3ccccc23)C(=O)N1C (stereo partly drawn) [Compound No. 21] ({CH2CO}-F[NMeA]N[ξP]HL[Sar]WSW[NMeNle][NMeA]RCG-NH2; thioether N-14)
9 | CCCC[C@H]1C(=O)N(C)[C@@H](CCCC)C(=O)N[C@@H](CCCNC(=N)N)C(=O)N[C@H](C(N)=O)CSCC(=O)N[C@@H](Cc2ccccc2)C(=O)N(C)[C@@H](C)C(=O)N[C@@H](CC(N)=O)C(=O)N2CCCC2C(=O)N[C@@H](Cc2cnc[nH]2)C(=O)N[C@@H](CC(C)C)C(=O)N(C)CC(=O)N[C@@H](Cc2c[nH]c3ccccc23)C(=O)N[C@@H](CO)C(=O)N[C@@H](Cc2c[nH]c3ccccc23)C(=O)N1C (stereo partly drawn) [Compound No. 24] ({CH2CO}-F[NMeA]N[ξP]HL[Sar]WSW[NMeNle][NMeNle]RC-NH2; thioether N-14)
27 | CCCC[C@H]1C(=O)N(C)[C@@H](CCCC)C(=O)N[C@@H](CCCNC(=N)N)C(=O)N[C@@H](C(=O)NCC(N)=O)CSCC(=O)N[C@@H](Cc2c[nH]c3ccccc23)C(=O)N(C)[C@@H](C)C(=O)N[C@@H](CC(N)=O)C(=O)N2CCC[C@H]2C(=O)N[C@@H](Cc2cnc[nH]2)C(=O)N[C@@H](CC(C)C)C(=O)N(C)CC(=O)N[C@@H](Cc2c[nH]c3ccccc23)C(=O)N[C@@H](CO)C(=O)N[C@@H](Cc2c[nH]c3ccccc23)C(=O)N1C [Compound No. 25] ({CH2CO}-W[NMeA]NPHL[Sar]WSW[NMeNle][NMeNle]R[dC]G-NH2; thioether N-14)
4 | CCCC[C@H]1C(=O)N(C)[C@@H](CCCC)C(=O)N[C@@H](CCCNC(=N)N)C(=O)N[C@H](C(=O)NCC(N)=O)CSCC(=O)N[C@@H](Cc2ccc(Br)cc2)C(=O)N(C)[C@@H](C)C(=O)N[C@@H](CC(N)=O)C(=O)N2CCC[C@H]2C(=O)N[C@@H](Cc2cnc[nH]2)C(=O)N[C@@H](CC(C)C)C(=O)N(C)CC(=O)N[C@@H](Cc2c[nH]c3ccccc23)C(=O)N[C@@H](CO)C(=O)N[C@@H](Cc2c[nH]c3ccccc23)C(=O)N1C [Compound No. 34] ({CH2CO}-[Phe(4-Br)][NMeA]NPHL[Sar]WSW[NMeNle][NMeNle]RCG-NH2; thioether N-14)
9 | CCCC[C@H]1C(=O)N(C)[C@@H](CCCC)C(=O)N[C@@H](CCCNC(=N)N)C(=O)N[C@H](C(=O)NCC(N)=O)CSCC(=O)N[C@@H](Cc2ccc(C)cc2)C(=O)N(C)[C@@H](C)C(=O)N[C@@H](CC(N)=O)C(=O)N2CCC[C@H]2C(=O)N[C@@H](Cc2cnc[nH]2)C(=O)N[C@@H](CC(C)C)C(=O)N(C)CC(=O)N[C@@H](Cc2c[nH]c3ccccc23)C(=O)N[C@@H](CO)C(=O)N[C@@H](Cc2c[nH]c3ccccc23)C(=O)N1C [Compound No. 36] ({CH2CO}-[Phe(4-Me)][NMeA]NPHL[Sar]WSW[NMeNle][NMeNle]RCG-NH2; thioether N-14)
33 | CCCC[C@H]1C(=O)N(C)[C@@H](CCCC)C(=O)N[C@@H](CCCNC(=N)N)C(=O)N[C@H](C(=O)NCC(N)=O)CSCC(=O)N[C@@H](Cc2ccncc2)C(=O)N(C)[C@@H](C)C(=O)N[C@@H](CC(N)=O)C(=O)N2CCC[C@H]2C(=O)N[C@@H](Cc2cnc[nH]2)C(=O)N[C@@H](CC(C)C)C(=O)N(C)CC(=O)N[C@@H](Cc2c[nH]c3ccccc23)C(=O)N[C@@H](CO)C(=O)N[C@@H](Cc2c[nH]c3ccccc23)C(=O)N1C [Compound No. 39] ({CH2CO}-[4Pal][NMeA]NPHL[Sar]WSW[NMeNle][NMeNle]RCG-NH2; thioether N-14)

— patent US9850283B2, “Macrocyclic inhibitors of the PD-1/PD-L1 and CD80(B7-1)/PD-L1 protein/protein interactions” (BRISTOL-MYERS SQUIBB COMPANY, priority 2013, dated 2017)
